Tested on: Plasmodium falciparum 3D7
Assay: P. falciparum 3D7 asexual blood stage assay, Assay Procedure Version 2 (SYBR green readout)
Format: cell-based
Settings: Version 2 of the assay procedure (asterisk *), 72 h incubation in infected erythrocytes, 50,000 nM to 15 nM
Procedure: Asexual Blood Stage Assay
The assay used to measure the effect of test compounds on a bloodstream stage of Plasmodium falciparum 3D7 strain employs SYBR green as the readout. This is a dye that binds to double stranded deoxyribonucleic acid (DNA) with a resulting increase in fluorescence, allowing detection of P. falciparum DNA in infected erythrocytes, and thereby providing a measure of parasite growth and propagation.
P. falciparum Culture Maintenance
Erythrocytes (A+blood) were prepared for both parasite culture and assay by washing 4 times with incomplete media (15.9 g RPMI 1640 (25 mM HEPES, L-glutamine), 1 g NaHCO3, 2 g glucose, 400 μL gentacin (500 mg/mL), 2 mL hypoxanthine solution (13.6 g/L in 0.1M NaOH pH 7.3) in 1 litre of media). The cells were centrifuged at 1800 g for 5 minutes, before decanting the supernatant and re-suspending in fresh incomplete media. On the final wash, the cells were re-suspended in complete media (incomplete media with 5 g/L AlbumaxII), and centrifuged at 1800 g for 3 minutes. This cell sediment was treated as 100% haematocrit.
P. falciparum 3D7 was cultured in erythrocytes at 5% haematocrit in complete media at 37° C. (1% O2, 3% CO2, balance N2). Cultures were split on a weekly basis to achieve a 1% parasitaemia in erythrocites at 5% haematocrit in fresh media. Culture media is replaced by fresh media every other day (2 times during the week).
[formula] where A=% inhibition at bottom; B=% inhibition at top; C=EC50; D=slope; x=inhibitor concentration; and y=% inhibition. […] Assay Procedure—Version 2
On day 1, test compounds were added to assay plates using Echo dispensing technology ([…] and 20 points titration). 50 nL of each compound dilution was added to 50 μL of culture (5% haematocrit, 0.5% parasitaemia) and incubated for 72 h at 37° C. (1% O2, 3% CO2, balance N2). Final concentrations of test compounds ranged from 50,000 nM to 15 nM, in […].
On day 4, 10 μL SYBR green (Invitrogen S7563 supplied as 10,000× concentrate in DMSO) pre-diluted to 3× concentrate with Lysis buffer (20 mM Tris pH 7.9, 5% EDTA, 0.16% w/v, 1.6% TX100 v/v) was added to the cultures and incubated in the dark, overnight, at room temperature.
On day 5, fluorescent signal was measured using a BioTek plate reader (excitation 485 nm, emission 528 nm). All data were processed using IDBS ActivityBase. Raw data were converted into percent inhibition through linear regression by setting the high inhibition control (mefloquine) as 100% and the no inhibition control (DMSO) as 0%. Quality control criteria for passing plates were as follows: Z′>0.5, S:B>3, % CV(no inhibition control)<15. The formula used to calculate Z′ is:
[formula] where μ denotes the mean; σ denotes the standard deviation; p denotes the positive control; and n denotes the negative control.
All EC50 curve fitting was undertaken using the following bi-phasic two site dose response using XLfit model 300 (IDBS):
[formula] where A=100 minus the top of the upper curve 1 and the bottom of lower curve; B=Hill slope; log(C)=IC50 concentration at lower site; log(D)=IC50 concentration at upper site; x=inhibitor concentration; and y=% inhibition.

[1] = Plasmodium falciparum, 3D7, Erythrocyte, 72 h

Row | Compound | IC50 [1] | IC50
1 | Cc1ncc(Nc2cccc([C@]3(C)CC(=O)N(C4CCOCC4)C(=N)N3)c2Cl)cc1C(F)(F)F [Example 93, (6S)-6-(2-Chloro-3-{[6-methyl-5-(trifluoromethyl)pyridin-3-yl]-amino}phenyl)-2-imino-6-methyl-3-(tetrahydropyran-4-yl)hexahydropyrimidin-4-one] | 70 nM | –
2 | C[C@@]1(c2cccc(Nc3ccccc3OC(F)F)c2Cl)CC(=O)N(C2CCOCC2)C(=N)N1 [Example 66, (6S)-6-{2-Chloro-3-[2-(difluoro-methoxy)anilino]phenyl}-2-imino-6-methyl-3-(tetrahydro-pyran-4-yl)hexahydropyrimidin-4-one] | 217 nM | –
3 | C[C@@]1(c2cccc(Nc3ccc(Cl)nc3)c2Cl)CC(=O)N(C2CCOCC2)C(=N)N1 [Example 60, (6S)-6-{2-Chloro-3-[(6-chloro-pyridin-3-yl)amino]phenyl}-2-imino-6-methyl-3-(tetrahydro-pyran-4-yl)hexahydropyrimidin-4-one] | 269 nM | –
4 | C[C@@]1(c2cccc(Nc3ccc(OC(F)(F)F)cc3)c2Cl)CC(=O)N(C2CCOCC2)C(=N)N1 [Example 64, (6S)-6-{2-Chloro-3-[4-(trifluoromethoxy)anilino]-phenyl}-2-imino-6-methyl-3-(tetrahydropyran-4-yl)-hexahydropyrimidin-4-one] | 1760 nM | –
5 | COc1ncccc1Nc1cccc([C@]2(C)CC(=O)N(C3CCOCC3)C(=N)N2)c1Cl [Example 50, (6S)-6-{2-Chloro-3-[(2-methoxypyridin-3-yl)amino]-phenyl}-2-imino-6-methyl-3-(tetrahydropyran-4-yl)-hexahydropyrimidin-4-one] | 373 nM | –
6 | C[C@@]1(c2cccc(Nc3ccc(F)cc3OC(F)F)c2Cl)CC(=O)N(C2CCOCC2)C(=N)N1 [Example 92, (6S)-6-{2-Chloro-3-[2-(difluoro-methoxy)-4-fluoro-anilino]-phenyl}-2-imino-6-methyl-3-(tetrahydropyran-4-yl)-hexahydropyrimidin-4-one] | 461 nM | –
7 | C[C@@]1(c2cccc(Nc3ccc(C4(C#N)CCC4)nc3)c2Cl)CC(=O)N(C2CCOCC2)C(=N)N1 [Example 103, 1-(5-{2-Chloro-3-[(4S)-2-imino-4-methyl-6-oxo-1-(tetrahydro-pyran-4-yl)hexahydropyrimidin-4-yl]anilino}pyridin-2-yl)-cyclobutanecarbonitrile] | 551 nM | –
8 | Cc1ccc(Nc2cccc([C@]3(C)CC(=O)N(C4CCOCC4)C(=N)N3)c2Cl)c(OC(F)F)n1 [Example 94, (6S)-6-(2-Chloro-3-{[2-(difluoromethoxy)-6-methyl-pyridin-3-yl]amino}phenyl)-2-imino-6-methyl-3-(tetrahydro-pyran-4-yl)hexahydropyrimidin-4-one] | 34 nM | –
9 | Cc1ccc(Nc2cccc([C@]3(C)CC(=O)N(C4CCOCC4)C(=N)N3)c2Cl)nn1 [Example 84, (6S)-6-{2-Chloro-3-[(6-methyl-pyridazin-3-yl)amino]phenyl}-2-imino-6-methyl-3-(tetrahydro-pyran-4-yl)hexahydropyrimidin-4-one] | 1540 nM | –
10 | Cc1ccc(Nc2cccc([C@]3(C)CC(=O)N(C4CCOCC4)C(=N)N3)c2Cl)c(C#N)n1 [Example 88, 3-{2-Chloro-3-[(4S)-2-imino-4-methyl-6-oxo-1-(tetrahydro-pyran-4-yl)hexahydropyrimidin-4-yl]anilino}-6-methylpyridine-2-carbonitrile] | 532 nM | –
11 | COc1ccncc1Nc1cccc([C@]2(C)CC(=O)N(C3CCOCC3)C(=N)N2)c1Cl [Example 54, (6S)-6-{2-Chloro-3-[(4-methoxypyridin-3-yl)amino]-phenyl}-2-imino-6-methyl-3-(tetrahydropyran-4-yl)-hexahydropyrimidin-4-one] | 655 nM | –

The next lines start with the values.

Row | IC50 [1] | IC50 | Compound
12 | 57 nM | – | C[C@@H]1C[C@H](N2C(=N)N[C@](C)(c3cccc(Nc4ccc(OCC(F)F)nc4)c3Cl)CC2=O)CCO1 (relative stereo) [Example 203, (6S)-6-(2-Chloro-3-{[6-(2,2-difluoroethoxy)pyridin-3-yl]-amino}phenyl)-2-imino-6-methyl-3-[(2R*,4R*)-2-methyl-tetrahydropyran-4-yl]-hexahydropyrimidin-4-one]
13 | 3700 nM | – | C[C@H]1C[C@H](N2C(=N)N[C@](C)(c3cccc(Nc4ccc(OC(F)F)nc4)c3Cl)CC2=O)CCO1 (single isomer, unassigned; peak 2) [Example 192, (6S)-6-(2-Chloro-3-{[6-(difluoromethoxy)pyridin-3-yl]-amino}phenyl)-2-imino-6-methyl-3-[(2S*,4R*)-2-methyl-tetrahydropyran-4-yl]-hexahydropyrimidin-4-one (Peak 2)]
14 | 622 nM | – | CC1(C)CC(N2C(=N)N[C@](C)(c3cccc(Nc4ccc(C5CC5)nn4)c3Cl)CC2=O)CCO1 (single isomer, unassigned) [Example 150, (6S)-6-{2-Chloro-3-[(6-cyclo-propylpyridazin-3-yl)amino]-phenyl}-3-[(4S*)-2,2-dimethyl-tetrahydropyran-4-yl]-2-imino-6-methylhexahydropyrimidin-4-one]
15 | 668 nM | – | Cn1ncc2cc(Nc3cccc([C@]4(C)CC(=O)N(C5CCOCC5)C(=N)N4)c3Cl)cnc21 [Example 115, (6S)-6-{2-Chloro-3-[(1-methyl-pyrazolo[3,4-b]pyridin-5-yl)-amino]phenyl}-2-imino-6-methyl-3-(tetrahydropyran-4-yl)hexahydropyrimidin-4-one]
16 | 565 nM | – | C[C@@]1(c2cccc(Nc3cnc4ccccn34)c2Cl)CC(=O)N(C2CCOCC2)C(=N)N1 [Example 185, (6S)-6-[2-Chloro-3-(imidazo-[1,2-a]pyridin-3-ylamino)-phenyl]-2-imino-6-methyl-3-(tetrahydropyran-4-yl)-hexahydropyrimidin-4-one]
17 | 148 nM | – | C[C@@H]1C[C@@H](N2C(=N)N[C@](C)(c3cccc(Nc4ccc(C5CC5)nc4)c3Cl)CC2=O)CCO1 (single isomer, unassigned; peak 1) [Example 193, (6S)-6-{2-Chloro-3-[(6-cyclo-propylpyridin-3-yl)amino]-phenyl}-2-imino-6-methyl-3-[(2R*,4S*)-2-methyltetrahydro-pyran-4-yl]hexahydropyrimidin-4-one (Peak 1)]
18 | 764 nM | – | C[C@@]1(c2cccc(Nc3ccc(C(F)(F)F)cc3)c2Cl)CC(=O)N([C@H]2C[C@@](C)(O)C2)C(=N)N1 [Example 174, (6S)-6-{2-Chloro-3-[4-(trifluoromethyl)anilino]-phenyl}-3-(3-hydroxy-3-methyl-cyclobutyl)-2-imino-6-methyl-hexahydropyrimidin-4-one]
19 | 1330 nM | – | Cc1cnc(Nc2cccc([C@]3(C)CC(=O)N([C@H]4C[C@@](C)(O)C4)C(=N)N3)c2Cl)cn1 [Example 129, (6S)-6-{2-Chloro-3-[(5-methyl-pyrazin-2-yl)amino]phenyl}-3-(3-hydroxy-3-methylcyclo-butyl)-2-imino-6-methyl-hexahydropyrimidin-4-one]
20 | – | 493 nM | CC1(C)CC(N2C(=N)N[C@](C)(c3cccc(Nc4ccc(OC(F)F)nc4)c3Cl)CC2=O)CCO1 (single isomer, unassigned) [Example 144, (6S)-6-(2-Chloro-3-{[6-(difluoromethoxy)pyridin-3-yl]-amino}phenyl)-3-[(4S*)-2,2-dimethyltetrahydropyran-4-yl]-2-imino-6-methylhexahydro-pyrimidin-4-one]

From patent publication US11479546B2, “Antimalarial hexahydropyrimidine analogues” (UCB Biopharma SRL, priority 2018, dated 2022)
